Experimental data from ChEMBL document CHEMBL5512671, “Structure-Based Optimization of Novel Sterol 24-C-Methyltransferase Inhibitors for the Treatment of Candida albicans Infections” (J Med Chem, 2024).
Values after ≈ are worked out from the molar mass of the structure shown.

Tests used:
[1] = Cytotoxicity against human BEAS-2B cells incubated for 48 hrs by CCK-8 method; format: toxicity, cell-based
[2] = tested on: Candida albicans; assay: Antifungal activity against Candida albicans SC5314 assessed as inhibition of fungal growth incubated for 24 hrs by CLSI protocol based broth microdilution method; format: functional
[3] = Cytotoxicity against human HUVEC cells incubated for 48 hrs by CCK-8 method; format: toxicity, cell-based
[4] = tested on: Candida albicans; assay: Antifungal activity against Candida albicans SC5314 assessed as inhibition of hyphae growth incubated for 24 hrs by CLSI protocol based broth microdilution method; format: functional
[5] = Hemolytic activity in mouse RBC assessed as hemolysis at 2 to 32 ug/ml incubated for 60 mins by absorbance based analysis relative to control; format: toxicity, cell-based, Erythrocyte; details: mouse red blood cells, at 2 to 32 µg/mL, dose 2-32 µg/ml, read-out: Activity

| Compound | EC50 at 48 h [1] [µg/mL] | MIC80 [2] [µg/mL] | EC50 at 48 h [3] [µg/mL] | MIC50 [4] [µg/mL] | hemolysis at 1 h [5] [%] |
| --- | --- | --- | --- | --- | --- |
| Cc1c(-n2c(-c3ccc4ccccc4c3)cs/c2=N\c2ccc3ccccc3c2)c(=O)n(-c2ccccc2)n1C | > 50 | > 128 | > 50 | 0.5 (≈ 0.928 µM) | < 1 |
| Cc1c(-n2c(-c3cccs3)cs/c2=N\c2ccccc2)c(=O)n(-c2ccccc2)n1C |  | > 128 |  | > 128 |  |
| C=CC(=O)Nc1cccc(-c2cs/c(=N\c3ccccc3)n2-c2c(C)n(C)n(-c3ccccc3)c2=O)c1 |  | > 128 |  | > 128 |  |
| Cc1c(-n2c(-c3ccncc3)cs/c2=N\c2ccc(Br)cc2)c(=O)n(-c2ccccc2)n1C |  | > 128 |  | > 128 |  |
| Cc1c(-n2c(-c3cccnc3)cs/c2=N\c2ccccc2)c(=O)n(-c2ccccc2)n1C |  | > 128 |  | > 128 |  |
| Cc1c(-n2c(-c3ccc(C(F)(F)F)cc3)cs/c2=N\c2ccccc2)c(=O)n(-c2ccccc2)n1C |  | > 128 |  | 4 (≈ 7.9 µM) |  |
| Cc1c(-n2c(-c3ccc4ccccc4c3)cs/c2=N\c2cccc3ccccc23)c(=O)n(-c2ccccc2)n1C | > 50 | > 128 | > 50 | 0.5 (≈ 0.928 µM) | < 1 |
| Cc1c(-n2c(-c3cccnc3)cs/c2=N\c2ccc(Br)cc2)c(=O)n(-c2ccccc2)n1C |  | > 128 |  | > 128 |  |
| Cc1c(-n2c(-c3ccc(I)cc3)cs/c2=N\c2ccccc2)c(=O)n(-c2ccccc2)n1C |  | > 128 |  | > 128 |  |
| Cc1c(-n2c(-c3ccccn3)cs/c2=N\c2ccccc2)c(=O)n(-c2ccccc2)n1C |  | > 128 |  | > 128 |  |
| Cc1c(-n2c(C34CC5CC(CC(C5)C3)C4)cs/c2=N\c2ccccc2)c(=O)n(-c2ccccc2)n1C |  | > 128 |  | > 128 |  |
| Cc1c(-n2c(-c3cc4ccccc4o3)cs/c2=N\c2ccccc2)c(=O)n(-c2ccccc2)n1C |  | > 128 |  | 2 (≈ 4.18 µM) |  |
| Cc1c(-n2c(-c3ccc(O)cc3)cs/c2=N\c2ccc(Br)cc2)c(=O)n(-c2ccccc2)n1C |  | > 128 |  | > 128 |  |
| COc1ccc(-c2cs/c(=N\c3ccccc3)n2-c2c(C)n(C)n(-c3ccccc3)c2=O)cc1 |  | > 128 |  | > 128 |  |
| Cc1c(-n2c(-c3cccc(F)c3)cs/c2=N\c2ccccc2)c(=O)n(-c2ccccc2)n1C |  | > 128 |  | > 128 |  |
| COc1ccc(/N=c2\scc(-c3ccc(Br)cc3)n2-c2c(C)n(C)n(-c3ccccc3)c2=O)cc1 |  | > 128 |  | 16 (≈ 29.2 µM) |  |
| Cc1c(-n2c(-c3ccc(Cl)cc3)cs/c2=N\c2ccc(Br)cc2)c(=O)n(-c2ccccc2)n1C |  | > 128 |  | 8 (≈ 14.5 µM) |  |
| COc1ccc(/N=c2\scc(-c3ccc4ccccc4c3)n2-c2c(C)n(C)n(-c3ccccc3)c2=O)cc1 |  | > 128 |  | 4 (≈ 7.71 µM) |  |
| Cc1c(-n2c(-c3ccc4ccc5cccc6ccc3c4c56)cs/c2=N\c2ccccc2)c(=O)n(-c2ccccc2)n1C |  | > 128 |  | > 128 |  |

| Compound | EC50 at 48 h [1] [µg/mL] | MIC80 [2] [µg/mL] | EC50 at 48 h [3] [µg/mL] | MIC50 [4] [µg/mL] | hemolysis at 1 h [5] [%] |
| --- | --- | --- | --- | --- | --- |
| C#CCOc1ccc(-c2cs/c(=N\c3ccccc3)n2-c2c(C)n(C)n(-c3ccccc3)c2=O)cc1 |  | > 128 |  | > 128 |  |
| Cc1c(-n2c(-c3ccc(Cl)cc3Cl)cs/c2=N\c2ccc(Br)cc2)c(=O)n(-c2ccccc2)n1C |  | > 128 |  | > 128 |  |
| Cc1c(-n2c(-c3ccc(Cl)cc3)cs/c2=N\c2ccccc2)c(=O)n(-c2ccccc2)n1C |  | > 128 |  | 4 (≈ 8.46 µM) |  |
| COc1ccc2cc(-c3cs/c(=N\c4ccccc4)n3-c3c(C)n(C)n(-c4ccccc4)c3=O)ccc2c1 |  | > 128 |  | > 128 |  |
| Cc1c(-n2c(-c3ccc(Cl)cc3Cl)cs/c2=N\c2ccccc2)c(=O)n(-c2ccccc2)n1C |  | > 128 |  | > 128 |  |
| COc1cccc(-c2cs/c(=N\c3ccccc3)n2-c2c(C)n(C)n(-c3ccccc3)c2=O)c1 |  | > 128 |  | > 128 |  |
| Cc1c(-n2c(-c3nccs3)cs/c2=N\c2ccccc2)c(=O)n(-c2ccccc2)n1C |  | > 128 |  | > 128 |  |
| Cc1c(-n2c(-c3ccc(F)cc3)cs/c2=N\c2ccc(Br)cc2)c(=O)n(-c2ccccc2)n1C |  | > 128 |  | > 128 |  |
| Cc1c(-n2c(-c3ccc(OC(F)(F)F)cc3)cs/c2=N\c2ccccc2)c(=O)n(-c2ccccc2)n1C |  | > 128 |  | 8 (≈ 15.3 µM) |  |
| Cc1c(-n2c(-c3cc4ccccc4oc3=O)cs/c2=N\c2ccccc2)c(=O)n(-c2ccccc2)n1C |  | > 128 |  | > 128 |  |
| Cc1c(-n2c(-c3ccc(F)cc3)cs/c2=N\c2ccccc2)c(=O)n(-c2ccccc2)n1C |  | > 128 |  | > 128 |  |
| Cc1c(-n2c(-c3ccccn3)cs/c2=N\c2ccc(Br)cc2)c(=O)n(-c2ccccc2)n1C |  | > 128 |  | > 128 |  |
| CC(=O)c1cs/c(=N\c2ccccc2)n1-c1c(C)n(C)n(-c2ccccc2)c1=O |  | > 128 |  | > 128 |  |
| Cc1c(-n2c(-c3ccccc3)cs/c2=N\c2ccccc2)c(=O)n(-c2ccccc2)n1C |  | > 128 |  | > 128 |  |
| Cc1c(-n2c(-c3cccc(Cl)c3)cs/c2=N\c2ccccc2)c(=O)n(-c2ccccc2)n1C |  | > 128 |  | > 128 |  |
| Cc1c(-n2c(-c3ccccc3Cl)cs/c2=N\c2ccccc2)c(=O)n(-c2ccccc2)n1C |  | > 128 |  | > 128 |  |
| Cc1c(-n2c(-c3ccc(O)cc3)cs/c2=N\c2ccccc2)c(=O)n(-c2ccccc2)n1C |  | > 128 |  | > 128 |  |
| Cc1c(-n2c(-c3cccc(N)c3)cs/c2=N\c2ccccc2)c(=O)n(-c2ccccc2)n1C |  | > 128 |  | > 128 |  |
| Cc1ccc(-c2cs/c(=N\c3ccccc3)n2-c2c(C)n(C)n(-c3ccccc3)c2=O)cc1 |  | > 128 |  | 4 (≈ 8.84 µM) |  |

| Compound | EC50 at 48 h [1] [µg/mL] | MIC80 [2] [µg/mL] | EC50 at 48 h [3] [µg/mL] | MIC50 [4] [µg/mL] | hemolysis at 1 h [5] [%] |
| --- | --- | --- | --- | --- | --- |
| COc1cc(-c2cs/c(=N\c3ccccc3)n2-c2c(C)n(C)n(-c3ccccc3)c2=O)cc(OC)c1OC |  | > 128 |  | > 128 |  |
| Cc1c(-n2c(-c3ccc(O)c(C=O)c3)cs/c2=N\c2ccc(Br)cc2)c(=O)n(-c2ccccc2)n1C |  | > 128 |  | > 128 |  |
| Cc1c(-n2c(-c3ccncc3)cs/c2=N\c2ccccc2)c(=O)n(-c2ccccc2)n1C |  | > 128 |  | > 128 |  |
| Cc1c(-n2c(-c3cccc([N+](=O)[O-])c3)cs/c2=N\c2ccccc2)c(=O)n(-c2ccccc2)n1C |  | > 128 |  | > 128 |  |
| Cc1c(-n2c(-c3ccc(C#N)cc3)cs/c2=N\c2ccc(Br)cc2)c(=O)n(-c2ccccc2)n1C |  | > 128 |  | > 128 |  |
| Cc1c(-n2c(-c3ccc(C(F)(F)F)cc3)cs/c2=N\c2ccc(Br)cc2)c(=O)n(-c2ccccc2)n1C |  | > 128 |  | > 128 |  |
| Cc1c(-n2c(-c3ccc4ccccc4c3)cs/c2=N\c2cccc(OCc3ccccc3)c2)c(=O)n(-c2ccccc2)n1C |  | > 128 |  | > 128 |  |
| Cc1c(-n2c(-c3ccc(C#N)cc3)cs/c2=N\c2ccccc2)c(=O)n(-c2ccccc2)n1C |  | > 128 |  | > 128 |  |
| Cc1c(-n2c(-c3ccc(Br)cc3)cs/c2=N\c2cccnc2)c(=O)n(-c2ccccc2)n1C |  | > 128 |  | > 128 |  |
| Cc1c(-n2c(C3CC3)cs/c2=N\c2ccccc2)c(=O)n(-c2ccccc2)n1C |  | > 128 |  | > 128 |  |
| Cc1c(-n2c(-c3ccc(-c4ccccc4)cc3)cs/c2=N\c2ccccc2)c(=O)n(-c2ccccc2)n1C |  | > 128 |  | > 128 |  |
| Cc1c(-n2c(-c3ccc(Br)cc3)cs/c2=N\c2ccc(C(F)(F)F)cc2)c(=O)n(-c2ccccc2)n1C |  | > 128 |  | 8 (≈ 13.7 µM) |  |
| Cc1c(-[n+]2c(-c3ccc(Br)cc3)csc2N(C)c2ccccc2)c(=O)n(-c2ccccc2)n1C.[I-] |  | > 128 |  | > 128 |  |
| Cc1c(-n2c(-c3ccc(S(C)(=O)=O)cc3)cs/c2=N\c2ccccc2)c(=O)n(-c2ccccc2)n1C |  | > 128 |  | > 128 |  |
| Cc1c(-n2c(-c3cccc([N+](=O)[O-])c3)cs/c2=N\c2ccc(Br)cc2)c(=O)n(-c2ccccc2)n1C |  | > 128 |  | > 128 |  |
| Cc1c(-n2c(-c3ccc4ccccc4c3)cs/c2=N\c2cccnc2)c(=O)n(-c2ccccc2)n1C |  | > 128 |  | 32 (≈ 65.4 µM) |  |
| Cc1c(-n2c(-c3ccc(O)c(C=O)c3)cs/c2=N\c2ccccc2)c(=O)n(-c2ccccc2)n1C |  | > 128 |  | > 128 |  |
| Cc1c(-n2c(C3CCN(C(=O)OC(C)(C)C)CC3)cs/c2=N\c2ccccc2)c(=O)n(-c2ccccc2)n1C |  | > 128 |  | > 128 |  |
